Target: T1, rat mGlu2 (Rattus norvegicus, UniProt P31421)
T1 construct: expressed in transfected cells
Experiment: mGlu2 Ca2+ flux assay
Assay type: cell-based
Details: for IC50: Gα15 HEK293 cells stably expressing rat mGlu2, glutamate EC80 addition, read-out: rat mGlu2 IC50; for remaining activity at 30 µM: amplitude of response in the presence of 30 μM test compound as percentage of maximal response to glutamate, read-out: rat mGlu2 Glu max (%)
Experimental: Gα15 HEK293 cells stably expressing rat mGlu2 were plated in black-walled, clear-bottomed, poly-D-lysine coated 384-well plates in 20 μL of assay medium (DMEM containing 10% dialyzed FBS, 20 mM HEPES, and 1 mM sodium pyruvate) at a density of 12K cells/well. The cells were grown overnight at 37° C. in the presence of 5% CO2. The next day, medium was removed and the cells incubated with 20 μL of 2.3 μM Fluo-4, AM prepared as a 2.3 mM stock in DMSO and mixed in a 1:1 ratio with 10% (w/v) pluronic acid F-127 and diluted in assay buffer (Hank's balanced salt solution, 20 mM HEPES, and 2.5 mM probenecid) for 45 minutes at 37° C. Dye was removed, 20 μL of assay buffer was added, and the plate was incubated for 5 minutes at room temperature.
Ca^2+ flux was measured using the Functional Drug Screening System (FDSS7000, Hamamatsu, Japan). After establishment of a fluorescence baseline for about 3 seconds, the compounds of the present invention were added to the cells, and the response in cells was measured. 2.3 minutes later an EC20 concentration of the mGlu2 receptor agonist glutamate was added to the cells, and the response of the cells was measured for 1.9 minutes; an EC80 concentration of agonist was added and readings taken for an additional 1.7 minutes. All test compounds were dissolved and diluted to a concentration of 10 mM in 100% DMSO. Compounds were then serially diluted 1:3 in DMSO into 10 point concentration response curves, transferred to daughter plates, and further diluted into assay buffer to a 2× stock. Calcium fluorescence measures were recorded as fold over basal fluorescence; raw data was then normalized to the maximal response to glutamate. Antagonism of the agonist response of the mGlu2 receptor in the present invention was observed as a decrease in response to nearly maximal concentrations of glutamate in the presence of compound compared to the response to glutamate in the absence of compound.
The raw data file containing all time points was used as the data source in the analysis template. This was saved by the FDSS as a tab-delimited text file. Data were normalized using a static ratio function (F/F0) for each measurement of the total 360 values per well divided by each well's initial value. Data were then reduced to peak amplitudes (Max−Initial Min) using a time range that starts approximately 3 seconds prior to the glutamate EC80 addition and continues for approximately 90 seconds. This is sufficient time to capture the peak amplitude of the cellular calcium response. Individual amplitudes were expressed as % ECMax by multiplying each amplitude by 100 and then dividing the product by the mean of the amplitudes derived from the glutamate ECMax-treated wells. IC50 values for test compounds were generated by fitting the normalized values versus the log of the test compound concentration (in mol/L) using a 4 parameter logistic equation where none of the parameters were fixed. Each of the three values collected at each concentration of test compound were weighted evenly.
For NAMs, potency (IC50) and maximum response (% Glu Max), i.e. the amplitude of response in the presence of 30 μM test compound as a percentage of the maximal response to glutamate, are reported. […] Compounds with no measurable activity are designated as “>30,000 nM” since the top concentration of compound tested in the assay is 30 μM.

T1 sequence (P31421 19-872): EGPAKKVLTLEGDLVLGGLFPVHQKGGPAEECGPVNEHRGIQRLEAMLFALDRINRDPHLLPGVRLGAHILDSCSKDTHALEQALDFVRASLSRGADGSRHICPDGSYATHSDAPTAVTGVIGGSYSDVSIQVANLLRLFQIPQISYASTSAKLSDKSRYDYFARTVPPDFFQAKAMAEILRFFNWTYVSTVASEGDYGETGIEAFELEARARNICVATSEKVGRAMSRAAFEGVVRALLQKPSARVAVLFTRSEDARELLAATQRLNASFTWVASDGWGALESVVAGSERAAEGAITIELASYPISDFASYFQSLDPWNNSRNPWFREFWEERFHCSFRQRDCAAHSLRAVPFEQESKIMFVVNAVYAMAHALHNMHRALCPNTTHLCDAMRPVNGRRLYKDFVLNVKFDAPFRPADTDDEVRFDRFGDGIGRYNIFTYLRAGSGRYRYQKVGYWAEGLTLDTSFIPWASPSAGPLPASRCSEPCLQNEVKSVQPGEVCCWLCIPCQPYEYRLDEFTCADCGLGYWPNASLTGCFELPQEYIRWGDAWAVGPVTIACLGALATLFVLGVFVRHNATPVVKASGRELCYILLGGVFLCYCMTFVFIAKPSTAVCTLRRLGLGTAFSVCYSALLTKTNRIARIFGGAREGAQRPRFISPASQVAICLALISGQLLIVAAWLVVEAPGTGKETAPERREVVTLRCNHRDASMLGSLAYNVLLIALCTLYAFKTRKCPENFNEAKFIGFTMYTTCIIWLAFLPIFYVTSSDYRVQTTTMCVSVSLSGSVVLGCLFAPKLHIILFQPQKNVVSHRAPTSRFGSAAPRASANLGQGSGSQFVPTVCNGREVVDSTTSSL

Structure (SMILES)	IC50	remaining activity at 30 µM
NC(=O)c1cn(-c2ccc(F)cc2)c2ccc(CN3CCCSCC3)cc2c1=O [Compound 71, 6-((1,4-thiazepan-4-yl)methyl)-1-(4-fluorophenyl)-4-oxo-1,4-dihydroquinoline-3-carboxamide]	164 nM	2.06%
NC(=O)c1cn(-c2ccc(F)cc2)c2ccc(Oc3cncc(F)c3)cc2c1=O [Compound 59, 1-(4-fluorophenyl)-6-((5-fluoropyridin-3-yl)oxy)-4-oxo-1,4-dihydroquinoline-3-carboxamide]	2110 nM	0.44%
N#CC1CCN(Cc2ccc3c(c2)c(=O)c(C(N)=O)cn3-c2ccc(F)cc2)CC1 [Compound 75, 6-((4-cyanopiperidin-1-yl)methyl)-1-(4-fluorophenyl)-4-oxo-1,4-dihydroquinoline-3-carboxamide]	735 nM	1.02%
NC(=O)c1cn(-c2ccc(F)cc2)c2ccc(NCCc3cccnc3)cc2c1=O [Compound 27, 1-(4-fluorophenyl)-4-oxo-6-((2-(pyridin-3-yl)ethyl)amino)-1,4-dihydroquinoline-3-carboxamide]	391 nM	1.75%
NC(=O)c1cn(-c2ccc(F)cc2)c2ccc(CN3CCCCC3)cc2c1=O [Compound 4, 1-(4-fluorophenyl)-4-oxo-6-(piperidin-1-ylmethyl)-1,4-dihydroquinoline-3-carboxamide]	> 10000 nM	53.8%
Cc1ncc(CCc2cc3c(=O)c(C(N)=O)cn(-c4ccc(F)cc4)c3cc2F)cn1 [Compound 54, 7-fluoro-1-(4-fluorophenyl)-6-(2-(2-methylpyrimidin-5-yl)ethyl)-4-oxo-1,4-dihydroquinoline-3-carboxamide]	2700 nM	1.02%
NC(=O)c1cn(-c2ccc(F)cc2)c2ccc(N3CCCC3c3cccnc3)cc2c1=O (stereo not shown) [Compound 40, 1-(4-fluorophenyl)-4-oxo-6-(2-(pyridin-3-yl)pyrrolidin-1-yl)-1,4-dihydroquinoline-3-carboxamide]	429 nM	1.81%

More lines, now with the values ahead:

IC50	remaining activity at 30 µM	Structure (SMILES)
1880 nM	1.23%	COC1CCN(Cc2ccc3c(c2)c(=O)c(C(N)=O)cn3-c2ccc(F)cc2)CC1 [Compound 74, 1-(4-fluorophenyl)-6-((4-methoxypiperidin-1-yl)methyl)-4-oxo-1,4-dihydroquinoline-3-carboxamide]
3190 nM	2.14%	CC(=O)N1CCN(Cc2ccc3c(c2)c(=O)c(C(N)=O)cn3-c2ccc(F)cc2)CC1 [Compound 82, 6-((4-acetylpiperazin-1-yl)methyl)-1-(4-fluorophenyl)-4-oxo-1,4-dihydroquinoline-3-carboxamide]
202 ± 14 nM	2.39 ± 0.13%	CN(Cc1cccnc1)c1ccc2c(c1)c(=O)c(C(N)=O)cn2-c1ccc(F)cc1 [Compound 12, 1-(4-fluorophenyl)-6-(methyl(pyridin-3-ylmethyl)amino)-4-oxo-1,4-dihydroquinoline-3-carboxamide]
> 30000 nM		CN(Cc1cc(F)c2c(c1)c(=O)c(C(N)=O)cn2-c1ccc(F)cc1)C1CC(F)(F)C1 [Compound 91, 6-(((3,3-difluorocyclobutyl)(methyl)amino)methyl)-8-fluoro-1-(4-fluorophenyl)-4-oxo-1,4-dihydroquinoline-3-carboxamide]
1030 nM	1.4%	NC(=O)c1cn(-c2ccc(F)cc2)c2ccc(CCc3cncc(F)c3)cc2c1=O [Compound 48, 1-(4-fluorophenyl)-6-(2-(5-fluoropyridin-3-yl)ethyl)-4-oxo-1,4-dihydroquinoline-3-carboxamide]
724 nM	1.36%	C[C@H]1CN(Cc2ccc3c(c2)c(=O)c(C(N)=O)cn3-c2ccc(F)cc2)CCO1 [Compound 88, (S)-1-(4-fluorophenyl)-6-((2-methylmorpholino)methyl)-4-oxo-1,4-dihydroquinoline-3-carboxamide]

— US9382208B1, “Negative allosteric modulators of metabotropic glutamate receptor 2” (Vanderbilt University, priority 2015, dated 2016)
